Values joined by “and” are separate entries in the source; they are usually repeats but may differ in a detail not shown here. Equal values may be shown once.

This test addresses T1, NS3 protease (dengue virus type 4, UniProt A0A0K0TQ36).
T1 sequence (A0A0K0TQ36 whole entry): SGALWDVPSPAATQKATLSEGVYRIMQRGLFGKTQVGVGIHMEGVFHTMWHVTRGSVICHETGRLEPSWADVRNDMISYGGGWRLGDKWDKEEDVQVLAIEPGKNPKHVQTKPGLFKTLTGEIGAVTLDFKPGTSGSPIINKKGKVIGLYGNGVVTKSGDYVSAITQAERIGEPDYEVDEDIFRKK
The test can be described thus: Functional biochemical assay to identify treatments for viral infectious disease that targets Dengue virus type 4 NS2B-NS3 protease. Utilizing a direct enzyme activity measurement method, reading the fluorescence intensity is used to characterize the relative potency of inhibitors as IC50. The arrangement: species or system Philippines/H241/1956.
Take `N=C(N)NCCC[C@H](NC(=O)c1nccs1)C(=O)N[C@@H](CCCCN)C(=O)N[C@@H](C(N)=O)c1ccc(OCc2ccc(C(F)(F)F)cc2)cc1`: the IC50 was 2.58 µM and 1.74 µM and 2.67 µM and 1.47 µM and 1.14 µM and 1.86 µM and 1.06 µM.
For `N=C(N)NCCC[C@H](NC(=O)[C@H](Cc1ccc(CN)cc1)NC(=O)c1ccccc1)B(O)O`, the IC50 is 0.793 µM and 0.503 µM.
`CC(C)(C)c1cc(Br)cc(C(=O)Nc2ccc3c(c2)CNC3)c1`: the IC50 was over 99.5 µM.
The value for `Clc1ccc2[nH]cc(Cc3ccc(-c4nn[nH]n4)cc3)c2c1` was 99.1 µM; that for `CN1Cc2ccc(NC(=O)c3cc(Cl)cc4[nH]ncc34)cc2C1` was over 99.5 µM.
`O=C(Nc1ccc2c(c1)CNC2)c1cc(Br)cc2ccccc12`: the IC50 was over 99.5 µM.
In the case of `O=C1Cc2c(cccc2C(=O)Nc2ccc3c(c2)CNC3)N1`, the IC50 came to 15.1 µM.
As for `O=C(Nc1cc(Cl)cc([C@H]2CN(Cc3ccccc3)C[C@@H]2c2cccc(-c3nn[nH]n3)c2)c1)OCc1ccccc1`, the half-inhibitory concentration (IC50) turned out to be 6.83 µM.
Consider `CC(C)c1cc(Br)cc(C(=O)Nc2ccc3c(c2)CNC3)c1`, for which the concentration for half-maximal inhibition (IC50) is over 99.5 µM.
Molecule `O=C(Nc1cc(Cl)cc(C(=O)Nc2ccc3c(c2)CNC3)c1)OCc1ccccc1` came in with a half-inhibitory concentration (IC50) of 91.3 µM.
`O=C(Nc1cc(Cl)cc([C@H](C#CCO)Nc2cccc(-c3nn[nH]n3)c2)c1)OCc1ccccc1` yielded an IC50 of 15.9 µM.
Molecule `NCc1cccc([C@H]2C[C@@H]2c2cc(Cl)cc(NC(=O)OCc3ccccc3)c2)c1` came in with an IC50 of 7.94 µM.
`N#C[C@H](Nc1cccc(-c2nn[nH]n2)c1)c1cc(Cl)cc(NC(=O)OCc2ccccc2)c1` yielded an IC50 of 12.4 µM.
On to `O=C(Nc1ccc2c(c1)CNC2)c1cc(Cl)cc2[nH]ncc12`, for which the concentration for half-maximal inhibition (IC50) is over 99.5 µM.
As for `O=C(Nc1cc(Cl)cc(C(=O)Nc2cccc([C@H]3C[C@H]3C(=O)O)c2)c1)OCc1ccccc1`, half-maximal inhibition (IC50) required 32.8 µM.
As for `O=C(Nc1cc(Cl)cc(-c2ccc3[nH]c(C(=O)O)cc3c2)c1)OCc1ccccc1`, the IC50 came to 6.92 µM.
`C=CC[C@H](Nc1cc(Cl)cc(NC(=O)OCc2ccccc2)c1)c1cccc(-c2nn[nH]n2)c1`: the IC50 worked out at 7.78 µM.
`CNC(=O)[C@H](Nc1cc(CN)cc(C(=O)O)c1)c1cc(Cl)cc(C2CC2)c1`: the IC50 was over 99.5 µM.
The value for `O=C(Nc1cc(Cl)cc([C@H]2C[C@@H]2c2cccc(C3CCNCC3)c2)c1)OCc1ccccc1` was 5.51 µM; that for `CC(C)CNC(=O)c1cc(Cl)ccc1NS(=O)(=O)c1ccc(Oc2ccccc2Cl)cc1` was 15 µM; that for `CNC(=O)[C@H](Nc1cc(Cl)cc(NC(=O)OCc2ccccc2)c1)c1cccc(-c2nn[nH]n2)c1` was 61.6 µM.
On to `N[C@H]1CC[C@H](c2ccc(NC(=O)c3cc(Cl)cc(NC(=O)OCc4ccccc4)c3)cc2)C1`, for which the IC50 was 7.64 µM.
On to `OCC#C[C@H](Nc1ccc2c(c1)CNC2)c1cc(Cl)cc2[nH]ncc12`, for which the IC50 worked out at 22.3 µM.
Take `NCc1cccc(NC(=O)c2cc(Cl)cc(NC(=O)OCc3ccccc3)c2)c1`: half-maximal inhibition (IC50) required 34.6 µM.
In the case of `c1cc(C2CCN(Cc3c[nH]c4ccccc34)CC2)c2ccncc2c1`, the IC50 is over 99.5 µM.
Molecule `CNC(=O)[C@H](Nc1cccc(CN)c1)c1cc(Cl)cc(NC(=O)OCc2ccccc2)c1` registered a half-maximal inhibitory concentration (IC50) of over 99.5 µM.
On to `CCc1cc(C(=O)Nc2cccc(-n3nn[nH]c3=O)c2)sc1-c1ccc(Cl)cc1`, for which inhibition was half-maximal at 13.1 µM (IC50).
`Cc1c(C(=O)Nc2cc(CCCN)ccn2)cc(C2CC2)n1C` gave a concentration for half-maximal inhibition (IC50) of 39.2 µM.
For the molecule `NCc1ccc([C@H]2C[C@@H]2c2cc(Cl)cc(NC(=O)OCc3ccccc3)c2)cc1`, the IC50 is 6.87 µM.
For the molecule `O=C(Nc1cc(Cl)cc(C(=O)Nc2ccc3c(c2)CCNC3)c1)OCc1ccccc1`, the IC50 turned out to be 32.1 µM.
As for `Cc1ccc(NC(=O)c2cc(Cl)cc(NC(=O)OCc3ccccc3)c2)cc1CN`, half-maximal inhibition (IC50) required 70.7 µM.
The value for `Cc1[nH]c2ccccc2c1CN1CCC(c2c[nH]c3ncccc23)CC1` was over 99.5 µM; that for `CNC(=O)[C@H](Nc1cc(CN)cc(-c2nn[nH]n2)c1)c1cc(Cl)cc(C2CC2)c1` was over 99.5 µM.
To `O=C(Nc1cc(Cl)cc(C(=O)Nc2cccc(-n3nn[nH]c3=O)c2)c1)OCc1ccccc1` belongs 13.9 µM.
